Like-named read-outs stand apart in the source and are kept apart here.
Experiments:
[1] = system: HBL2; assay: Cytotoxicity: Mantle Cell Lymphoma; conditions: Homo sapiens, HBL2
[2] = system: REC-1; assay: Cytotoxicity: Mantle Cell Lymphoma; conditions: Homo sapiens, Rec1
[3] = system: Z-138; assay: Drug combination cytotoxicity with BO-1055; assay type: cell-based, human
[4] = system: Granta; assay: Drug combination cytotoxicity with BO-1055; assay type: cell-based, human
[5] = system: REC-1; assay: Drug combination cytotoxicity with BO-1055; assay type: cell-based, human
[6] = system: Mino; assay: Drug combination cytotoxicity with BO-1055; assay type: cell-based, human
[7] = system: NECB1; assay: Drug combination cytotoxicity with BO-1055; assay type: cell-based, human
[8] = system: JEKO-1; assay: Drug combination cytotoxicity with BO-1055; assay type: cell-based; conditions: Homo sapiens, JeKo-1, 72 h, read-out: IC50 single drug
[9] = system: HBL2; assay: Drug combination cytotoxicity with BO-1055; assay type: cell-based; conditions: Homo sapiens, HBL2, 72 h, read-out: IC50 single drug
[10] = system: 16HBE SV40+; assay: cells; assay type: cell-based; conditions: Homo sapiens, 72 h
[11] = system: BCI-NSI hTERT; assay: 72 hr cytotoxicity: Bronchial epithelium; assay type: cell-based; conditions: Homo sapiens
[12] = system: BEAS2B SV40; assay: cells; assay type: cell-based; conditions: Homo sapiens, BEAS-2B, 72 h
[13] = system: FTE-hTERT; assay: 72 hr cytotoxicity: Fallopian epithelium; assay type: cell-based; conditions: Homo sapiens
[14] = system: HS578; assay: 72 hr cytotoxicity: Breast epithelium; assay type: cell-based; conditions: Homo sapiens, Hs578, 72 h
[15] = system: BMEC-hTert; assay: cells; assay type: cell-based; conditions: Homo sapiens, 72 h
[16] = system: HUVEC; assay: 72 hr cytotoxicity: Umbilical endothelium; assay type: cell-based; conditions: Homo sapiens, HUVEC, 72 h
[17] = system: MS-5 (mouse); assay: 72 hr cytotoxicity: Adult BM stroma; assay type: cell-based; conditions: MS-5 murine stroma
[18] = system: MRC5; assay: cells; assay type: cell-based; conditions: Homo sapiens, MRC5, 72 h
[19] = system: IMR90; assay: 72 hr cytotoxicity: fetal lung myofibroblast; assay type: cell-based; conditions: Homo sapiens, IMR-90, 72 h
[20] = system: Cord Blood CFC (CFU-GM, BFU-E, CFU-C); assay: cells; assay type: cell-based; conditions: Homo sapiens
[21] = system: normal human, murine or primate cell and tissue types; assay: MTT / alamar blue cytotoxicity on panel of normal tissues; assay type: cell-based; conditions: read-out: IC50 range
[22] = system: MCL line JEKO-1 vs normal human tissues; assay type: cell-based
[23] = system: normal cord blood CD34+ cells; assay: Cytotoxicity on normal cord blood CD34+ cells; assay type: cell-based; conditions: Homo sapiens
[24] = system: Ewing's sarcoma primary patient tumor; assay: Cyclophosphamide-resistant primary Ewing's sarcoma xenograft; assay type: in vivo, NSG mice; conditions: cyclophosphamide 70 mg/kg i.p. x3, then BO-1055 30 mg/kg iv x4
[25] = system: MV4;11 AML cell line vs normal human tissues; assay type: cell-based
[26] = system: primary AML (AML-2) vs normal human tissues; assay type: cell-based
[27] = system: primary B-ALL vs normal human tissues; assay type: cell-based
[28] = system: H526 variant SCLC cell line vs normal human tissues; assay type: cell-based
[29] = system: MA-10-W51 CB MLL-AF9 + Flt3ITD; assay: Cytotoxicity: AML HSC-derived; assay type: cell-based, human; conditions: growth factor dependent MA-10-W51, FIG. 9
Excerpt: • a) Growth factor-dependent & cell density growth dependent cell lines. Human cord blood CD34+ cells transduced with MLL-AF9 gene: MA-10, MA-18. Human bone marrow CD34+ cells transduced with MLL-AF9 gene: MA-23. Human cord blood CD34+ cells transduced with MLL-AF9 and N-ras genes: MA-9.3, MA-9.6. • b) Growth factor independent leukemic cell lines. Human MA-10 cells transduced with Flt3 ITD (W51) were adapted to in vitro proliferation without growth factors (Moore Laboratory).

[30] = system: BMMSC; assay: 72 hr cytotoxicity: BM Mesenchyme; assay type: cell-based; conditions: Homo sapiens
[31] = system: H82; assay: 72 hr cytotoxicity: SCLC variant; assay type: cell-based; conditions: Homo sapiens, NCI-H82
[32] = system: H211; assay: 72 hr cytotoxicity: SCLC variant; assay type: cell-based; conditions: Homo sapiens, NCI-H211; read-out: IC50
[33] = system: H524; assay: 72 hr cytotoxicity: SCLC variant; assay type: cell-based; conditions: Homo sapiens, NCI-H524
[34] = system: H128; assay: 72 hr cytotoxicity: SCLC classic; assay type: cell-based; conditions: Homo sapiens, NCI-H128; read-out: IC50
[35] = system: H146; assay: 72 hr cytotoxicity: SCLC classic; assay type: cell-based; conditions: Homo sapiens, NCI-H146
[36] = system: H187; assay: 72 hr cytotoxicity: SCLC classic; assay type: cell-based; conditions: Homo sapiens, NCI-H187
[37] = system: H209; assay: 72 hr cytotoxicity: SCLC classic; assay type: cell-based; conditions: Homo sapiens, NCI-H209
[38] = system: H249; assay: 72 hr cytotoxicity: SCLC classic; assay type: cell-based; conditions: Homo sapiens
[39] = system: H417; assay: 72 hr cytotoxicity: SCLC variant; assay type: cell-based; conditions: Homo sapiens, NCI-H417
[40] = system: H526; assay: 72 hr cytotoxicity: SCLC variant; assay type: cell-based; conditions: Homo sapiens, NCI-H526
[41] = system: H562; assay: 72 hr cytotoxicity: SCLC classic; assay type: cell-based; conditions: Homo sapiens
[42] = system: H60; assay: 72 hr cytotoxicity: SCLC classic; assay type: cell-based; conditions: Homo sapiens
[43] = system: H69; assay: 72 hr cytotoxicity: SCLC classic; assay type: cell-based; conditions: Homo sapiens, NCI-H69
[44] = system: H678; assay: 72 hr cytotoxicity: SCLC classic; assay type: cell-based; conditions: Homo sapiens
[45] = system: H719; assay: 72 hr cytotoxicity: SCLC classic; assay type: cell-based; conditions: Homo sapiens
[46] = system: H841; assay: 72 hr cytotoxicity: SCLC variant; assay type: cell-based; conditions: Homo sapiens, NCI-H841
[47] = system: H889; assay: 72 hr cytotoxicity: SCLC classic; assay type: cell-based; conditions: Homo sapiens, NCI-H889
[48] = Homo sapiens, 72 h, read-out: IC50 single drug

`Cc1[nH]c2ccccc2c1CCNCc1ccc(/C=C/C(=O)NO)cc1` [Panobinostat] showed an IC50 [1] of 13 nM and an IC50 [2] of 60 nM.

In the case of `CC(C)C[C@H](NC(=O)[C@H](Cc1ccccc1)NC(=O)c1cnccn1)B(O)O` [velcade, Bortezomib], the “interaction with BO-1055 (combo-1, combo-2)” value (shortened to “interaction”) [3] is reported as “synergistic cytotoxic with both combinations”, the IC50 ([3]; Homo sapiens, Z-138, 72 h, read-out: IC50 single drug) is reported as 8 nM and the “interaction” value [4] is reported as “synergistic with combo-1 and antagonistic with combo-2”. The IC50 [4, 48] was 8 nM, the “interaction” value [5] was “antagonistic in both combinations” and the IC50 ([5]; Homo sapiens, Rec1, 72 h, read-out: IC50 single drug) was 8 nM. The “interaction” value [6] was “synergistic cytotoxic with both combinations”, the IC50 ([6]; Homo sapiens, MINO, 72 h, read-out: IC50 single drug) was 40 nM and the “interaction” value [7] was “synergistic with combo-1 and antagonistic with combo-2”. It also gave an IC50 [7, 48] of 137 nM, an IC50 [8] of 15 nM and an IC50 [9] of 5 nM.

`Cn1c(CCCC(=O)O)nc2cc(N(CCCl)CCCl)ccc21` [Bendamustine] gave an IC50 [10] of 3550 nM, an IC50 ([11]; 72 h) of 85000 nM and an IC50 [12] of over 10000 nM. The IC50 ([13]; 72 h) was 400000 nM, the IC50 [14] was over 100000 nM and the IC50 [15] was 300000 nM. The IC50 [16] was 140000 nM, the IC50 [17] was 2240 nM and the IC50 [18] was over 20000 nM. For the same molecule, the IC50 [19] was 32300 nM, the IC50 [20] was 10000 nM and the IC50 [21] was 20000 to 400000 nM. For the same molecule, the TW [22] was 1.60-6.36 fold and the IC50 ([23]; 72 h) was 10000 nM.

In the case of `O=P1(N(CCCl)CCCl)NCCCO1` (stereo not shown) [cyclophosphamide], the tumor response [24] is reported as “Tumor growth was not inhibited”.

With `N.N.[Cl][Pt][Cl]` [Cisplatin] the IC50 [21] was 3600 to 4100 nM, the Therapeutic window ([25]; CD34+ relative to MV4;11) was 0.75 and the Therapeutic window ([25]; HUVEC relative to MV4;11) was 6.25. The Therapeutic window ([25]; NSI (Bci-NSI) relative to MV4;11) was 3.75, the Therapeutic window ([25]; huMSC relative to MV4;11) was 2.50 and the Therapeutic window ([26]; Bci- (NSI) relative to AML-2) was 0.50. For the same molecule, the Therapeutic window ([26]; CD34+ relative to AML-2) was 0.10, the Therapeutic window ([26]; FTEC relative to AML-2) was 1.67 and the Therapeutic window ([26]; HUVEC relative to AML-2) was 0.83. For the same molecule, the Therapeutic window ([26]; huMSC relative to AML-2) was 0.33, the Therapeutic window ([27]; Bci- (NSI) relative to B-ALL) was 0.50 and the Therapeutic window ([27]; CD34+ relative to B-ALL) was 0.10. For the same molecule, the Therapeutic window ([27]; FTEC relative to B-ALL) was 20.00, the Therapeutic window ([27]; HUVEC relative to B-ALL) was 0.83 and the Therapeutic window ([27]; huMSC relative to B-ALL) was 0.33. For the same molecule, the “therapeutic window (TW)” value ([28]; Bci- (NSI), normalized to 1.00 for H526) was 83.33, the “therapeutic window (TW)” value ([28]; CD34+, normalized to 1.00 for H526) was 33.33 and the “therapeutic window (TW)” value ([28]; FTEC, normalized to 1.00 for H526) was 1041.7. The “therapeutic window (TW)” value ([28]; H526 (reference)) was 1.00, the “therapeutic window (TW)” value ([28]; HUVEC, normalized to 1.00 for H526) was 58.33 and the “therapeutic window (TW)” value ([28]; huMSC, normalized to 1.00 for H526) was 75.00.

`CC(=O)O[C@H]1C(=O)[C@@]2(C)[C@H]([C@H](OC(=O)c3ccccc3)[C@]3(O)C[C@H](OC(=O)[C@H](O)[C@@H](NC(=O)c4ccccc4)c4ccccc4)C(C)=C1C3(C)C)[C@]1(OC(C)=O)CO[C@@H]1C[C@@H]2O` [Paclitaxel] gave an IC50 [1] of 16 nM and an IC50 [2] of 21 nM.

`CCc1c(CO)c(CO)c2n1Cc1c(c3ccccc3n1C)C2` [BO-1978] was tested, and the “cytotoxicity (in words)” value [29] was “highly cytotoxic, with BO-1978 more so than BO-1055”.

In the case of `CC[C@]1(O)C[C@H]2CN(CCc3c([nH]c4ccccc34)[C@@](C(=O)OC)(c3cc4c(cc3OC)N(C=O)[C@H]3[C@@](O)(C(=O)OC)[C@H](OC(C)=O)[C@]5(CC)C=CCN6CC[C@]43[C@@H]65)C2)C1` [Vincristine], the IC50 ([11]; Bci-NSI hTERT immortalized lung bronchus epithelium, 72 hr, read-out: IC50) is reported as 200000 nM, the IC50 ([13]; FTEC Fallopian tube epithelium, 72 hr, read-out: IC50) is reported as 250000 nM and the IC50 ([30]; HuMSC bone marrow mesenchymal stem cells, 72 hr, read-out: IC50) is reported as 6300 nM. For the same molecule, the IC50 ([31]; read-out: IC50) was 7 nM, the IC50 [32] was 2 nM and the IC50 ([33]; read-out: IC50) was 1 nM. For the same molecule, the IC50 [34] was 5 nM, the IC50 ([35]; read-out: IC50) was 2900 nM and the IC50 ([36]; read-out: IC50) was 1 nM. The IC50 ([37]; read-out: IC50) was 1 nM, the IC50 ([38]; H249, read-out: IC50) was 1 nM and the IC50 ([39]; read-out: IC50) was 2 nM. For the same molecule, the IC50 ([40]; read-out: IC50) was 136 nM, the IC50 ([41]; H562, read-out: IC50) was 1 nM and the IC50 ([42]; H60, read-out: IC50) was 2 nM. The IC50 ([43]; read-out: IC50) was 3 nM, the IC50 ([44]; H678, read-out: IC50) was 2 nM and the IC50 ([45]; H719, read-out: IC50) was 2 nM. The IC50 ([46]; read-out: IC50) was 2 nM, the IC50 ([47]; read-out: IC50) was 1 nM and the Therapeutic window [25] was 1.00. The IC50 ([23]; CD34 (cord blood hematopoietic progenitors), 72 hr, read-out: IC50) was 2340 nM.

For `COc1cc([C@@H]2c3cc4c(cc3[C@@H](O[C@@H]3O[C@@H]5CO[C@@H](C)O[C@H]5[C@H](O)[C@H]3O)[C@H]3COC(=O)[C@H]23)OCO4)cc(OC)c1O` [Etoposide], the IC50 ([11]; 72 h) was 500 nM, the IC50 ([13]; 72 h) was 200000 nM and the IC50 ([30]; 72 h) was 70200 nM. The IC50 [31] was 9700 nM, the IC50 [33] was 1400 nM and the IC50 [35] was 2900 nM. The IC50 [36] was 600 nM, the IC50 [37] was 500 nM and the IC50 [38] was 4100 nM. For the same molecule, the IC50 [39] was 3700 nM, the IC50 [40] was 800 nM and the IC50 [41] was 5500 nM. The IC50 [42] was at least 20000 nM, the IC50 [43] was 400 nM and the IC50 [44] was 310 nM. For the same molecule, the IC50 [45] was at least 10000 nM, the IC50 [46] was 600 nM and the IC50 [47] was 1400 nM. For the same molecule, the IC50 ([23]; 72 h) was 90 nM.

Reference: US10548861B2 (Academia Sinica, priority 2015, dated 2020)
